According to US9896456B2, “Pharmaceutical compound having inhibitory activity against cholesterol acyltransferase isozyme 2 (ACAT2)” (School Juridical Person Kitasato Institute, priority 2014, dated 2018):
Values belong to the molecule of their own block, whether it stands above or below them.

Molecular target: T1, ACAT2 (Mus musculus, UniProt O88908)
T1 construct: The resulting sediment was collected as a murine hepatic microsome fraction; from tissue; host or cells: mouse liver (hepatic microsome fraction)
T1 sequence (O88908 1-525): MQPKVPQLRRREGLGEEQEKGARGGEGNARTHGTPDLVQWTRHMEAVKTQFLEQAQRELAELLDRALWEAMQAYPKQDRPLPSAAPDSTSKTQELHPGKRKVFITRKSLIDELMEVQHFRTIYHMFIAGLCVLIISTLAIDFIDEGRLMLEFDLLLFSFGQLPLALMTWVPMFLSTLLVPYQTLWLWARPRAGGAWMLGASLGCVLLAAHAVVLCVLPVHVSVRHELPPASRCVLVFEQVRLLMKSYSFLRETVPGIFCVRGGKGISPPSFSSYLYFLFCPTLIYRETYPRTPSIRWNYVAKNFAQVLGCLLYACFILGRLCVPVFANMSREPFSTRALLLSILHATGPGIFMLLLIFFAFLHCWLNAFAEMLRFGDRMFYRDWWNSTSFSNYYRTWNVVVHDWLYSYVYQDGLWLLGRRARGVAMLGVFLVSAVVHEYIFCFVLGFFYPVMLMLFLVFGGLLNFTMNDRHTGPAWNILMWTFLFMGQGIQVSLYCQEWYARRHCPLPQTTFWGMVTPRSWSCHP
Test: Test of inhibitory activity against ACAT2 (murine hepatic microsome, [1-14C]oleoyl coenzyme A)
Assay type: biochemical
Settings: for IC50: murine hepatic microsome fraction as enzyme source, 37° C., 5 minutes; for degree of inhibitory activity against ACAT2 (in words, compared with pyripyropene A): summary of Table 1
Protocol: The compounds produced in accordance with the procedure described above were tested concerning the inhibitory activity against ACAT2 in the manner described below.
The ACAT2 enzyme protein was extracted from the membrane fraction derived from the murine hepatic microsome. Mouse livers were homogenized in buffer A (50 mM Tris-HCl buffer (pH 7.8), 1 mM ethylenediaminetetraacetic acid, and 1 mM phenylmethanesulfonyl fluoride) using a Potter-type homogenizer (Tokyo-RIKO). The homogenate was centrifuged at 12,000×g, and the supernatant was subjected to ultracentrifugation at […]. The resulting sediment was collected as a murine hepatic microsome fraction, and this fraction was adjusted so as to have a protein concentration of 5 mg/ml using buffer A. Thus, an enzyme source of the ACAT2 enzyme protein was obtained.
ACAT2 activity was measured in the manner described below. […] The reaction solution was incubated at 37° C. for 5 minutes. A reaction solution prepared with the addition of 10 μl of methanol in place of the sample was used as a control reaction solution.
After the incubation, the reaction was terminated with the addition of 1.2 ml of a chloroform/methanol (1:2) solution to the reaction solution. […] The resulting chloroform layer was evaporated to dryness and spotted on a thin layer chromatography (TLC) plate (silica gel plate, 0.5 mm thickness, Merck). Separation was carried out with the use of a solvent comprising hexane/diethyl ether/acetic acid (70:30:1, v/v). Subsequently, [^14C] cholesteryl oleate separated on the TLC plate was quantified using FLA 7000 (Fuji Film). […] In quantification of the [^14C] cholesteryl oleate, the radioactivity of a TLC plate onto which no substance had been spotted was designated as the background level.
The symbols used in the table are as defined below.

SMILES: CC(=O)O[C@H]1C[C@@H](C(C)C)C[C@H]2[C@H](O)c3c(cc(-c4cccnc4)oc3=O)O[C@]12C [PT002, (5aS,6S,8S,9aS,10S)-10-hydroxy-8-isopropyl-5a-methyl-1-oxo-3-(pyridin-3-yl)-1,5a,6,7,8,9,9a,10-octahydropyrano[4,3-b]chromen-6-yl acetate]
IC50: 10 to 100 µM

SMILES: CC(=O)OCC(COC(C)=O)[C@@H]1C[C@H](OC(C)=O)[C@@]2(C)Oc3cc(-c4cccnc4)oc(=O)c3[C@H](O)[C@@H]2C1(C)C [PT010]
IC50: 10 to 100 µM

SMILES: CC(=O)O[C@H]1C[C@@H](C(C)C)C[C@H]2[C@@H](O)c3c(cc(-c4cccnc4)oc3=O)O[C@]12C [PT001, (5aS,6S,8S,9aS,10R)-10-hydroxy-8-isopropyl-5a-methyl-1-oxo-3-(pyridin-3-yl)-1,5a,6,7,8,9,9a,10-octahydropyrano[4,3-b]chromen-6-yl acetate]
IC50: 10 to 100 µM

SMILES: CC(=O)O[C@H]1C[C@@H](C(C)C)C[C@H]2[C@H](O)c3c(cc(-c4ccccc4)oc3=O)O[C@]12C [PT004, (5aS,6S,8S,9aS,10S)-0-hydroxy-8-isopropyl-5a-methyl-1-oxo-3-phenyl-1,5a,6,7,8,9,9a,10-octahydropyrano[4,3-b]chromen-6-yl acetate]
IC50: 0.5 to 10 µM

SMILES: CC(=O)O[C@H]1C[C@@H](C(C)C)C[C@H]2C(O)c3c(cc(-c4ccccc4)oc3=O)O[C@]12C (stereo in doubt) [PT003, (5aS,6S,8S,9aS,10R)-10-hydroxy-8-isopropyl-5a-methyl-1-oxo-3-phenyl-1,5a,6,7,8,9,9a,10-octahydropyrano[4,3-b]chromen-6-yl acetate]
IC50: 10 to 100 µM

Now from value to molecule, other results behind:

IC50: 0.5 to 10 µM
SMILES: CC(=O)O[C@H]1C[C@@H](C(C)C)C(C)(C)[C@H]2[C@@H](O)c3c(cc(-c4cccnc4)oc3=O)O[C@]12C [PT008, (5aS,6S,8S,9aS,10R)-10-hydroxy-8-isopropyl-5a,9,9-trimethyl-1-oxo-3-(pyridin-3-yl)-1,5a,6,7,8,9,9a,10-octahydropyrano[4,3-b]chromen-6-yl acetate]

IC50: < 0.5 µM
SMILES: CC(C)[C@@H]1C[C@H](OC(=O)c2ccc(C#N)cc2)[C@@]2(C)Oc3cc(-c4cccnc4)oc(=O)c3[C@H](O)[C@@H]2C1(C)C [PT009, (5aS,6S,8S,9aS,10R)-10-hydroxy-8-isopropyl-5a,9,9-trimethyl-1-oxo-3-(pyridin-3-yl)-1,5a,6,7,8,9,9a,10-octahydropyrano[4,3-b]chromen-6-yl 4-cyanobenzoate]
degree of inhibitory activity against ACAT2 (in words, compared with pyripyropene A): substantially equivalent to that of pyripyropene A

IC50: < 0.5 µM
SMILES: CC(=O)OCC(COC(C)=O)[C@@H]1C[C@H](OC(=O)c2ccc(C#N)cc2)[C@@]2(C)Oc3cc(-c4cccnc4)oc(=O)c3[C@H](O)[C@@H]2C1(C)C [PT022, 2-((5aS,6S,8S,9aS,10R)-6-((4-cyanobenzoyl)oxy)-10-hydroxy-5a,9,9-trimethyl-1-oxo-3-(pyridin-3-yl)-1,5a,6,7,8,9,9a,10-octahydropyrano[4,3-b]chromen-8-yl)propane-1,3-diyl diacetate]

IC50: 0.5 to 10 µM
SMILES: CC(C)[C@@H]1C[C@H](OC(=O)c2ccc(C#N)cc2)[C@@]2(C)Oc3cc(-c4ccccc4)oc(=O)c3[C@H](O)[C@@H]2C1 [PT007, (5aS,6S,8S,9aS,10R)-10-hydroxy-8-isopropyl-5a-methyl-1-oxo-3-phenyl-1,5a,6,7,8,9,9a,10-octahydropyrano[4,3-b]chromen-6-yl 4-cyanobenzoate]

IC50: < 0.5 µM
SMILES: CC(C)[C@@H]1C[C@H](OC(=O)c2ccc(C#N)cc2)[C@@]2(C)Oc3cc(-c4cccnc4)oc(=O)c3[C@@H](O)[C@@H]2C1 [PT006, (5aS,6S,8S,9aS,10S)-10-hydroxy-8-isopropyl-5a-methyl-1-oxo-3-(pyridin-3-yl)-1,5a,6,7,8,9,9a,10-octahydropyrano[4,3-b]chromen-6-yl 4-cyanobenzoate]
degree of inhibitory activity against ACAT2 (in words, compared with pyripyropene A): substantially equivalent to that of pyripyropene A

IC50: < 0.5 µM
SMILES: CC(C)[C@@H]1C[C@H](OC(=O)c2ccc(C#N)cc2)[C@@]2(C)Oc3cc(-c4cccnc4)oc(=O)c3[C@H](O)[C@@H]2C1 [PT005, (5aS,6S,8S,9aS,10R)-10-hydroxy-8-isopropyl-5a-methyl-1-oxo-3-(pyridin-3-yl)-1,5a,6,7,8,9,9a,10-octahydropyrano[4,3-b]chromen-6-yl 4-cyanobenzoate]
degree of inhibitory activity against ACAT2 (in words, compared with pyripyropene A): substantially equivalent to that of pyripyropene A
